Data reported in US11447485B2, “Class of bifunctional compounds with quanternary ammonium salt structure” (Beijing Showby Pharmaceutical Co., Ltd., priority 2016, dated 2022).
Read-outs that look alike come from different tables or passages of the source.

Assays:
[1] = system: tracheal smooth muscle of guinea pig; test: Relaxation of CCh-induced constriction of isolated guinea pig tracheal smooth muscle (Experimental Example 1); conditions: for EC50: Cavia porcellus, read-out: EC50 (μM) ± SD
Protocol: The upper end was connected with a muscle tension transducer, and the specimen was given a resting tension of 1.0 g. Muscle tension changes were recorded, nutrient solution was changed every 20 min, and the experiment was started after 60 min of equilibrium.
Administration Method: After the trachea flake were stabilized, 3×10^−6 mol/L CCh was added to the bath. […] Diastolic condition of the trachea flake was observed. If no response occurred (below the threshold concentration), the next dosage was continued to be added in the order. If any response occurred, the next dosage was added until its diastolic platform was reached. The above operation was repeated until the shrink curve reached the minimum. Finally, 10^−6 mol/L isoproterenol was added to establish maximum relaxation, and the curve was recorded.
Statistical Methods: Statistics was performed using the Sigma Stat statistical software package, the data was analyzed by using the variance analysis. Student-Newman-Keuls (SNK) test was used in comparison among multiple sample averages number. The statistical test level was α=0.05 (bilateral).

[2] = target: T1, human recombinant β2 adrenoceptor (Homo sapiens, UniProt P07550); test: cell-based; format: cell-based; conditions: EC50 (β1)/EC50 (β2)
T1 construct: expressed in transfected cells
T1 sequence (P07550 whole entry): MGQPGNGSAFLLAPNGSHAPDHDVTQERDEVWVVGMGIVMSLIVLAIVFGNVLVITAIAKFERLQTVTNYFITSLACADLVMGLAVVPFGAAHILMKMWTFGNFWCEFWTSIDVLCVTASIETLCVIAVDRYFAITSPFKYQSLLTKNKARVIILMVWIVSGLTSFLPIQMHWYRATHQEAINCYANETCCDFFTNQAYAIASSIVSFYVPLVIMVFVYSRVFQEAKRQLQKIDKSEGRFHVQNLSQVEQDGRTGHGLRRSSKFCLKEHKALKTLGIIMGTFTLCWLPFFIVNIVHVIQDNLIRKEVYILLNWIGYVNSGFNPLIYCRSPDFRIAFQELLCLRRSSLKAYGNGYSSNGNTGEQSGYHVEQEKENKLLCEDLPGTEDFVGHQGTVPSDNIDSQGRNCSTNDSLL

| SMILES | Time for eliminating inhibition effect (min) ([1]; CCh 3 × 10^−6 mol/L, in vitro) | EC50 [1] [µM] | sel (β1/β2) [2] | Onset time (min) ± SD ([1]; CCh 3 × 10^−6 mol/L, in vitro) [min] | Time for eliminating inhibition effect ([1]; CCh 3 × 10^−6 mol/L, in vitro) [min] | Time for eliminating inhibition effect (min) ([1]; CCh 3 × 10^−6 mol/L, in vitro, listed as ipratropium bromide) | EC50 ([1]; constriction induced by CCh 3 × 10^−6 mol/L, in vitro) [µM] |
| --- | --- | --- | --- | --- | --- | --- | --- |
| O=c1ccc2c([C@@H](O)CNCCC[N+]34CCC(CC3)[C@@H](OC[C@@](O)(c3ccccc3)C3CCCC3)C4)ccc(O)c2[nH]1 [Compound 2, (R)-(−)-3-[(R)-2-hydroxy-2-cyclopentyl-2-phenyl]ethoxy-1-(3-{(R)-[2-hydroxy-2-(8-hydroxy-2-oxo-1,2-dihydroquinolin-5-yl)]ethylamino}propyl)-1-azabicyclo[2,2,2]octylonium bromide] | more than 300 min | 0.756 ± 0.26 | 7.8 |  |  |  |  |
| O=CNc1cc([C@@H](O)CNCCCC[N+]23CCC(CC2)[C@@H](OC[C@@](O)(c2ccccc2)C2CCCC2)C3)ccc1O [Compound 4, (R)-(−)-3-[(R)-2-hydroxy-2-cyclopentyl-2-phenyl]ethoxy-1-(4-{(R)-[2-hydroxy-2-(3-formamido-4-hydroxy)phenyl]ethylamino}butyl-1-azabicyclo[2,2,2]octylonium bromide] | more than 300 min | 0.0358 ± 0.011 | 36.8 | 6.23 ± 0.23 |  |  |  |
| O=CNc1cc([C@@H](O)CNCCCCOCC[N+]23CCC(CC2)[C@@H](OC[C@@](O)(c2ccccc2)C2CCCC2)C3)ccc1O [Compound 25, (R)-(−)-3-[(R)-2-hydroxy-2-cyclopentyl-2-phenyl]ethoxy-1-[2-(4-{(R)-[2-hydroxy-2-(3-formamido-4-hydroxy)phenyl]ethylamino}butoxy)ethyl]-1-azabicyclo[2,2,2]octylonium bromide] | more than 300 min | 0.822 ± 0.27 | 30.8 | 6.86 ± 0.22 |  |  |  |
| O=C1COc2c(cc(O)cc2C(O)CNCCCCOCCCCC[N+]23CCC(CC2)C(OCC(O)(c2ccccc2)C2CCCC2)C3)N1 [Compound 26, (R)-(−)-3-[(R)-2-hydroxy-2-cyclopentyl-2-phenyl]ethoxy-1-[5-(4-{(R)-[2-hydroxy-2-(6-hydroxy-2H-1,4-benzoxazin-3(4H)-one-8-yl)]ethylamino}butoxy)pentyl]-1-azabicyclo[2,2,2]octylonium bromide] | more than 300 min | 0.087 ± 0.021 | 18.8 | 6.56 ± 0.65 |  |  |  |
| OCc1cc(C(O)CNCCCCOCCCC[N+]23CCC(CC2)C(OCC(O)(c2ccccc2)C2CCCC2)C3)ccc1O [Compound 27, (R)-(−)-3-[(R)-2-hydroxy-2-cyclopentyl-2-phenyl]ethoxy-1-[4-(4-{(R)-[2-(3-hydroxymethyl-4-hydroxy)phenyl-2-hydroxy]ethylamino}butoxy)butyl-1-azabicyclo[2,2,2]octylonium bromide] | more than 300 min | 0.152 ± 0.086 | 78.9 | 5.54 ± 0.43 |  |  |  |
| OCc1cc(C(O)CNCCOCCOCCOCC[N+]23CCC(CC2)C(OCC(O)(c2ccccc2)C2CCCC2)C3)ccc1O [Compound 45, (R)-(−)-3-[(R)-2-hydroxy-2-cyclopentyl-2-phenyl]ethoxy-1-(2-{2-[2-(2-{(R)-[2-(3-hydroxymethyl-4-hydroxy)phenyl-2-hydroxy]ethylamino}ethoxy)ethoxy]ethoxy}ethyl)-1-azabicyclo[2,2,2]octylonium bromide] | more than 300 min | 0.0278 ± 0.0091 | 120.3 | 6.39 ± 0.56 |  |  |  |
| O=CNc1cc(C(O)CNCCOCCOCC[N+]23CCC(CC2)C(OCC(O)(c2ccccc2)C2CCCC2)C3)ccc1O [Compound 46, (R)-(−)-3-[(R)-2-hydroxy-2-cyclopentyl-2-phenyl]ethoxy-1-{2-[2-(2-{(R)-[2-hydroxy-2-(3-formamido-4-hydroxy)phenyl]ethylamino}ethoxy)ethoxy]ethyl}-1-azabicyclo[2,2,2]octylonium chloride] | more than 300 min | 0.136 ± 0.068 | 68.9 | 6.75 ± 0.33 |  |  |  |
| O=c1ccc2c([C@@H](O)CNCCOCCOCC[N+]34CCC(CC3)[C@@H](OC[C@@](O)(c3ccccc3)C3CCCC3)C4)ccc(O)c2[nH]1.[Cl-] [Compound 50] | more than 300 min | 0.0135 ± 0.0092 | 56.9 | 6.76 ± 0.32 |  |  |  |
| OCc1cc([C@@H](O)CNCCc2ccc(OCC[N+]34CCC(CC3)[C@@H](OC[C@@](O)(c3ccccc3)C3CCCC3)C4)cc2)ccc1O [Compound 57, (R)-(−)-3-[(R)-2-hydroxy-2-cyclopentyl-2-phenyl)]ethoxy-1-{2-[4-(2-{[(R)-[2-(3-hydroxymethyl-4-hydroxy)phenyl-2-hydroxy]ethylamino}ethyl)phenoxy]ethyl}-1-azabicyclo[2,2,2]octylonium bromide] | more than 300 min | 0.0265 ± 0.016 | 68.8 | 6.03 ± 0.18 |  |  |  |
| O=c1ccc2c([C@@H](O)CNCc3ccc(OCCC[N+]45CCC(CC4)[C@@H](OC[C@@](O)(c4ccccc4)C4CCCC4)C5)cc3)ccc(O)c2[nH]1 [Compound 58, (R)-(−)-3-[(R)-2-hydroxy-2-cyclopentyl-2-phenyl]ethoxy-1-{3-[4-(1-{(R)-[2-hydroxy-2-(8-hydroxy-2-oxo-1,2-dihydroquinolin-5-yl)]ethylamino}methyl)phenoxy]propyl}-1-azabicyclo[2,2,2]octylonium bromide] | more than 300 min | 0.0131 ± 0.0088 | 89.8 | 5.56 ± 0.24 |  |  |  |
| CC(C)(Cc1ccc(OCC[N+]23CCC(CC2)[C@@H](OC[C@@](O)(c2ccccc2)C2CCCC2)C3)cc1)NC[C@H](O)c1cc(O)cc2c1OCC(=O)N2 [Compound 60, (R)-(−)-3-[(R)-2-hydroxy-2-cyclopentyl-2-phenyl]ethoxy-1-{2-[4-(2-{(R)[-2-hydroxy-2-(6-hydroxy-2H-1,4-benzoxazin-3(4H)-one-8-yl)]ethylamino}isobutyl)phenoxy]ethyl}-1-azabicyclo[2,2,2]octylonium bromide] | more than 300 min | 0.0523 ± 0.018 | 12.3 | 6.59 ± 0.43 |  |  |  |
| CCC(NC[C@H](O)c1ccc(O)c2[nH]c(=O)ccc12)c1ccc(OCCC[N+]23CCC(CC2)[C@@H](OC[C@@](O)(c2ccccc2)C2CCCC2)C3)cc1 (stereo partly drawn) [Compound 62, (R)-(−)-3-[(R)-2-hydroxy-2-cyclopentyl-2-phenyl]ethoxy-1-{3-[4-(1-{(R)-[2-hydroxy-2-(8-hydroxy-2-oxo-1,2-dihydroquinolin-5-yl)]ethylamino}propylidene)phenoxy]propyl}-1-azabicyclo[2,2,2]octylonium bromide] | more than 300 min | 0.0351 ± 0.01 | 126.7 | 7.02 ± 0.22 |  |  |  |
| CC(C)(NC[C@H](O)c1ccc(O)c(CO)c1)c1ccc(OCCC[N+]23CCC(CC2)[C@@H](OC[C@@](O)(c2ccccc2)C2CCCC2)C3)cc1.[Br-] [Compound 71] | more than 300 min | 0.019 ± 0.0061 | 468.2 | 6.92 ± 0.26 |  |  |  |
| CC(Cc1ccc(OCC[N+]23CCC(CC2)[C@@H](OC[C@@](O)(c2ccccc2)C2CCCC2)C3)cc1)NC[C@H](O)c1ccc(O)c(CO)c1.[Br-] (stereo partly shown) [Compound 75] | more than 300 min | 0.176 ± 0.031 | 56.8 | 6.38 ± 0.35 |  |  |  |
| O=c1ccc2c([C@@H](O)CNCCc3ccc(OCCC[N+]45CCC(CC4)[C@@H](OC[C@@](O)(c4ccc(Cl)cc4)C4CCCC4)C5)cc3)ccc(O)c2[nH]1.[Br-] [Compound 78] | more than 300 min | 0.0137 ± 0.0078 | 108.6 | 6.48 ± 0.38 |  |  |  |
| CC(C)(NC[C@H](O)c1ccc(O)c2[nH]c(=O)ccc12)c1ccc(OCCC[N+]23CCC(CC2)[C@@H](OC[C@@](O)(c2ccccc2)C2CCCC2)C3)cc1 [Compound 84] | more than 300 min | 0.0251 ± 0.0086 | 238.8 | 6.78 ± 0.18 |  |  |  |
| CC(C)[N+]1(C)[C@@H]2CC[C@H]1C[C@@H](OC(=O)C(CO)c1ccccc1)C2 (stereo partly shown) [Ipratropium bromide, ipratropium bromide, reference compound] |  |  |  | 6.82 ± 0.28 | 185 | short duration of action | 0.0361 ± 0.0046 |
